Measurements published in ChEMBL document CHEMBL1146610, “Improved gelatinase a selectivity by novel zinc binding groups containing galardin derivatives” (Bioorg Med Chem Lett, 2003).
Blank lines part the entries; values can stand above or below the compound they belong to.

Experiments:
[1] = target: 72 kDa type IV collagenase (Homo sapiens, UniProt P08253); assay: Inhibition of Matrix metalloprotease-2
[2] = target: T1, Interstitial collagenase (Homo sapiens, UniProt P03956); assay: Inhibition of matrix metalloprotease-1
T1 sequence (P03956 whole entry): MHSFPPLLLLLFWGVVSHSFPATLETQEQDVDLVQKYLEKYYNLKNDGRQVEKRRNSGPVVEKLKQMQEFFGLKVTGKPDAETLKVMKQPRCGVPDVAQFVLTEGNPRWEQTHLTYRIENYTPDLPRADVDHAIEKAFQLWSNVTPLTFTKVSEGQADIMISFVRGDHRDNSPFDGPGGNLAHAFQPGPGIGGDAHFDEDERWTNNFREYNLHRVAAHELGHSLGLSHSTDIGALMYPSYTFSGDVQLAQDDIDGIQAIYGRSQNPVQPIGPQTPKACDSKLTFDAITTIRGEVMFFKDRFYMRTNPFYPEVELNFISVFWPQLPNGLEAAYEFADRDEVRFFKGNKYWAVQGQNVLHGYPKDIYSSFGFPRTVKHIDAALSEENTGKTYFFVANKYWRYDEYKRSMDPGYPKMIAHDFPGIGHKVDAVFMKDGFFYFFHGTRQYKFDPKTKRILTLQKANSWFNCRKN

Sequence of 72 kDa type IV collagenase (P08253 whole entry): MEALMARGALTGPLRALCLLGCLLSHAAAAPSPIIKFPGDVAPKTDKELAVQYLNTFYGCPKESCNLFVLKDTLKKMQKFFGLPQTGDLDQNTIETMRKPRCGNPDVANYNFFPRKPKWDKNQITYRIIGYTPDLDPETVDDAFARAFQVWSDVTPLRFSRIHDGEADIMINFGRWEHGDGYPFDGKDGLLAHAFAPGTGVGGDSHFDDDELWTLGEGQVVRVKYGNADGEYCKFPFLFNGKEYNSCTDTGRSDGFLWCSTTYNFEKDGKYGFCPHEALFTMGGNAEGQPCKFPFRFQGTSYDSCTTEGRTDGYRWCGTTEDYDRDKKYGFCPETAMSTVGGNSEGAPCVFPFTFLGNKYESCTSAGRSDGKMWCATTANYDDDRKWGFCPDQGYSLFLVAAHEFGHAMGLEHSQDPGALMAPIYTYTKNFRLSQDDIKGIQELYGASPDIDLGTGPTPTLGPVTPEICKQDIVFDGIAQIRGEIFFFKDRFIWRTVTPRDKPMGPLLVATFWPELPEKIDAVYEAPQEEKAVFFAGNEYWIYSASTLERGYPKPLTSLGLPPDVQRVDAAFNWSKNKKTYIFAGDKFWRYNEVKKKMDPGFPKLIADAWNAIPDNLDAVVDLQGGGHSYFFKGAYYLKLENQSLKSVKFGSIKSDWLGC

Compound: CNC(=O)[C@H](Cc1c[nH]c2ccccc12)NC(=O)[C@@H](CC(=O)c1ccc[nH]1)CC(C)C
- IC50 [1]: 540 nM
- IC50 [2]: 860 nM

Compound: CNC(=O)C(Cc1c[nH]c2ccccc12)NC(=O)[C@@H](CC(=O)NN)CC(C)C (stereo partly specified)
- IC50 [1]: 550 nM
- IC50 [2]: 50 nM

Compound: CNC(=O)C(Cc1c[nH]c2ccccc12)NC(=O)[C@@H](CC(=O)NNS(=O)(=O)c1ccc(C)cc1)CC(C)C (stereo partly specified)
- IC50 [1]: 30 nM
- IC50 [2]: > 10000 nM

Next, values leading:

- IC50 [1]: 50 nM
- IC50 [2]: 60 nM
Compound: CNC(=O)C(Cc1c[nH]c2ccccc12)NC(=O)[C@@H](CC(=O)Nc1ccccn1)CC(C)C (stereo partly specified)

- IC50 [1]: 20 nM
Compound: CNC(=O)C(Cc1c[nH]c2ccccc12)NC(=O)[C@@H](CC(=O)O)CC(C)C (stereo partly specified)

- IC50 [1]: 180 nM
- IC50 [2]: 730 nM
Compound: CNC(=O)[C@H](Cc1c[nH]c2ccccc12)NC(=O)[C@@H](CC(=O)c1ccccn1)CC(C)C
